Results published in patent US7339042B2, “Gene delivery to tumors” (University of Florida Research Foundation, Inc., priority 2003, dated 2008).
Entries after “also recorded” stand apart in the source; their conditions may differ. No end group written: not given here.

Columns and labels:
T98G cells = assay: Fusion peptide cell killing, propidium iodide/FACS viability, T98G cells; type: cell-based, human; settings: 10 μM peptide, 1 hr
Experimental: (§1) Other experiments were performed using two glioma cell lines, i.e., T98G and RG2. 1×10^6 cells per well were incubated in 6-well plates with peptides in complete media for 1 hr. Cells were removed from the plate using a cell stripper and the percentage of viable cells was determined by staining with propidium iodide and analyzing by fluorescence activated cell sorting (FACS).
(§2) Cell viability studies were performed by plating the cells under the same conditions as the uptake studies. Cells were incubated with fluorescent peptides for 1 hr at 37° C. The cells were removed from the plate using cell striper. They were labeled with propidium iodide and fluorescein-AM. Percent PI positive cells were determined by FACS.

RG2 cells [1] = assay: Fusion peptide cell killing, propidium iodide/FACS viability, RG2 cells; type: cell-based, rat
Experimental: as §1
There are 4 conserved amino acid differences between the rat and human CDKI sequence. Both sequences were attached to Tat and tested for cell killing activity in the rat glioma RG2 cells. Also the effect of orientation of the Tat and CDKI domains were tested. RG2 cells were plated on 6 well plates at approximately 70% confluency. Each of the peptides was added to the wells with increasing concentration. After 1 hr, cells were removed from the plates, washed 2× with PBS, stained with propidium iodide and analyzed by FACS for viable cells.
as §2
The cytotoxicity of the chimeric peptides was characterized using a cell viability assay. Peptides were added to cells at a fixed concentration. After a 30-minute incubation, cells were removed from the plate, stained with propidium iodide and the % positive cells were determined by FACS (fluorescent activated cell scanning). The test conditions were Tat, ANT, Tat-P14ARF, ANT-P14ARF and P14ARF. T98G cells were tested along with RG2 cells and A172 cells.

A172 glioblastoma cells = assay: Peptide incubation with A172 glioblastoma cells, viability; type: cell-based, human; settings: 6 μM, 30 minutes at 37° C.
Experimental: Fusion proteins containing a Tat domain and a p16 domain were synthesized as peptides. Two forms of the peptides were made, one with Tat on the amino terminus (designated Tat-P16), and the other with p16 on the amino terminus (P16-Tat). Control peptides were synthesized having only the Tat or P16 sequence. The peptides were incubated with A172 glioblastoma cells, then the cells were assayed for viability.

A172 cells = assay: Fluorescein peptide uptake by A172 cells, fluorescence microscopy; type: cell-based, human; settings: 30 uM peptide, 1 hr, 37° C., serum containing media
Experimental: (§3) For fluorescent microscopy studies cells were plated on 2 chamber cover slips at a density of 1×10^4 cells/chamber. Cells were incubated with […] peptide for 30 minutes in completed media, washed with PBS 3× and imaged using a Nikon Axiophot inverted fluorescent microscope. Images were taken using a Spot CCD camera.
Synthetic peptides derived from HIV Tat (Tat) and the Drosophila antennaepedia homeodomain (ANT) were tested for cell uptake by A172 cells (human glioblastomas). The peptides were labeled at the N-terminus with fluorescein. Cells were incubated with 30 uM peptide at 37° C. in serum containing media. Fluorescent micrographs were taken after 1 hr incubation at 37° C. […] The size of the peptide was increased by added an Mdm-2 binding domain derived from P14ARF. This domain was added to the C-terminus of the Tat and ANT peptides. The P14ARF domain was also placed at the N-terminus followed by the Tat peptide. All the peptides were labeled at the N-terminus with fluorescein and cell incubations similar to the Tat and ANT peptides were tested for cellular uptake. […] Both the bright field and fluorescent micrographs show altered cell morphology.

RG2 cells [2] = assay: Fluorescein peptide uptake by RG2 cells, fluorescence microscopy; type: cell-based, rat
Experimental: as §3
Similar observations were obtained for all the peptides in another human glioblastoma cell line, T98G.

[3] = tested on: endothelial cells and smooth muscle cells of rat cerebral arteries; assay: Uptake of fluorescent peptides by pressure-mounted rat cerebral arteries; type: cell-based
Experimental: Tat-P16 peptides were prepared and labeled with fluorescein for use in uptake studies using intact blood vessels isolated from rat brain. Blood vessels were dissected from rat brain and stabilized in an isolated perfusion system in which vessels were attached on either end to catheters and placed under physiological pressure. Following a 10 minute perfusion of the isolated vessels with flurorescent Tat-P16 peptide (1 μM), vessels were examined for uptake of the peptides. […] Within the endothelial cells, the labeled peptides were seen to be localized to the cell nuclei, further confirming uptake of the peptides by the cells.
The peptides are fairly labile in the media and approximately 50% are degraded upon incubation at 37° C. in complete media (qualitative analysis by PAGE) after 1 hour. […] Uptake of these peptides and cell killing activity was tested in a 3 dimensional organ culture using rat cerebral arteries cultured under physiological pressure and flow. A segment of the rat cerebral artery is surgically removed and placed in ringer's solution. Using a surgical stereoscope, the blood vessel is tied at either end to two cannulas on a teflon stage. Ringer's solution is perfused through the lumen of the vessel at a constant rate that maintains physiologic hydrostatic pressure. The fluorescent peptide was introduced intraluminally by perfusing a 1 μM solution of peptide through the lumen over a 10 minute period.
Rats were anesthetized by intraperitoneal injection of pentobarbital sodium (160 mg/kg) and killed by decapitation. The brain was removed and placed in an ice-cold oxygenated physiological cerebrospinal fluid (PCSF, see below for composition). Cerebellar arteries were isolated and mounted in an arteriograph as described previously (Knot and Nelson 1998). The arteriograph was placed on an inverted microscope and the artery was visualized with a monochrome CCD camera coupled to a calibrated video caliper system to measure arterial diameter. The arteries were slowly pressurized to 70 mmHg under no flow conditions using a pressure servo-null system (Living Systems Inc., Burlington Vt.), and warmed to 37° C. while being continuously superfused (5 ml/min) with PCSF bubbled with 21% O2, 5% CO2, 74% N2 (pH 7.35-7.40 in the bath). […] Myogenic tone is calculated by the following equation: Myogenic tone=(Dp−Da)/Dp×100
(§4) In some experiments, the arterial segments were denuded of endothelium by passing an air bubble through the lumen, thus exposing the smooth muscle cells to luminally administered peptides. Constriction to pressure and 60 mM KCl and dilation of arteries with myogenic tone to 16 mM KCl were used as benchmarks of functional arteries. Peptide containing PCSF was perfused intraluminally at an inlet pressure of 70 mmHg with the outlet open, for 20 min and then perfused with normal PCSF. This procedure ensures a 20 min of exposure of the arteries to the peptide.

rat cerebral arteries [4] = assay: Vasodilation and vasoconstriction response of rat cerebral arteries before and after peptide; type: cell-based; settings: after vs before intraluminal peptide
Experimental: The blood vessels were put in culture described above and perfused with buffer of the same composition as cerebrospinal fluid. Vessel diameter was measured before and after administration of each reagent. 3 μM of each peptide was perfused through for 10 minutes followed by a 10 minute wash through. Vasoconstriction and vasodilation were determined for each vessel before peptide was applied. Perfusion was continued until the vessels relaxed to their original diamter (approximately 30 minutes). The vasoconstriction and vasodilation reponse was remeasured after the 10 minute wash through. The 60 mM KCl and 16 mM KCl conditions are […], respectively. Histamine and Bradykinin are endothelial cell vasodilators.
as §4
(§5) Effect of peptide on endothelial and smooth muscle function was evaluated by histamine (0.3 and 1 μM) and bradykinin (0.5 μM) (endothelium-dependent vasodilators) and 16 and 60 mM KCl (results in dilation and constriction of arteries by hyperpolarizing and depolarizing smooth muscle, respectively). These drug solutions were added to the superfusate and applied to the arteries extraluminally for 10 to 15 min before and after intraluminal perfusion with peptides. Effects of these agents were expressed as percent change in myogenic tone (decrease for dilators and increase for constrictors). Experiments were concluded by exposing the arteries to calcium free PCSF to obtain the passive diameter. Cell viability was determined by adding H3334 (Hoechst viability stain, final concentration 1 μM) and propidium iodide (final concentration 1 μM) to the arteriograph after the peptide incubation. Fluorescent micrographs were taken of the vessels after incubation with peptides and following addition of the vital stains using Till Photonics imaging system (Martinsried, Germany).

rat cerebral arteries [5] = assay: Cell viability staining of arteries (propidium iodide, H3334) after peptide; type: cell-based; settings: after treatment with peptide
Experimental: No PI statined smooth muscle cell nuclei were observed.
as §5

[6] = intraluminal perfusion of fluorescent peptide

## AGGGYGRKKRRQRRRMVRRFLVTLRIRRA [Tat-P14ARF]
T98G cells
  % killing (toxicity): 65%
RG2 cells [1]; 10 μM peptide, 1 hr
  % killing (toxicity): 61%
RG2 cells [1]; dose response 1 μM to 10 μM
  IC50: ~10 µM
A172 glioblastoma cells
  effect on cells: began to round up and subsequently die
A172 cells
  staining pattern (cell uptake): nuclear staining
RG2 cells [2]
  staining pattern (cell uptake): nuclear staining
[3]; after intraluminal exposure
  morphology of the endothelial cells: morphology of the endothelial cells was altered
[3]; [6]
  labeling/uptake by endothelial cells: same labeling pattern as the Tat alone
  labeling/uptake by smooth muscle cells: No evidence was seen of uptake
[3]; intraluminal perfusion of fluorescent peptide, listed as Tat-P16
  labeling/uptake by endothelial cells: taken up by the endothelial cells; also recorded: localized to the endothelial cells
Rat cerebral arteries [4]
  endothelium-dependent dilation to histamine and bradykinin: inhibited endothelial cell response to histamine and bradykinin; also recorded: significantly reduced
  smooth muscle response to 60 and 16 mM KCl: unaffected; also recorded: not affected
Rat cerebral arteries [4]; listed as Tat-CDKI
  endothelium-dependent dilation to histamine and bradykinin: lack of response to vasodilators
Rat cerebral arteries [5]
  propidium iodide staining of blood vessels: predominantly horizontal endothelial nuclei being stained indicating cell death
